Assay results taken from the Kinase Knowledgebase extract (Sharma et al. 2016).

Target: ROCK2 (human) (UniProt O75116)
Assay: Assessment of ROCK2 Kinase Activity

ROCK2 (human), sequence (O75116 whole entry, looked up): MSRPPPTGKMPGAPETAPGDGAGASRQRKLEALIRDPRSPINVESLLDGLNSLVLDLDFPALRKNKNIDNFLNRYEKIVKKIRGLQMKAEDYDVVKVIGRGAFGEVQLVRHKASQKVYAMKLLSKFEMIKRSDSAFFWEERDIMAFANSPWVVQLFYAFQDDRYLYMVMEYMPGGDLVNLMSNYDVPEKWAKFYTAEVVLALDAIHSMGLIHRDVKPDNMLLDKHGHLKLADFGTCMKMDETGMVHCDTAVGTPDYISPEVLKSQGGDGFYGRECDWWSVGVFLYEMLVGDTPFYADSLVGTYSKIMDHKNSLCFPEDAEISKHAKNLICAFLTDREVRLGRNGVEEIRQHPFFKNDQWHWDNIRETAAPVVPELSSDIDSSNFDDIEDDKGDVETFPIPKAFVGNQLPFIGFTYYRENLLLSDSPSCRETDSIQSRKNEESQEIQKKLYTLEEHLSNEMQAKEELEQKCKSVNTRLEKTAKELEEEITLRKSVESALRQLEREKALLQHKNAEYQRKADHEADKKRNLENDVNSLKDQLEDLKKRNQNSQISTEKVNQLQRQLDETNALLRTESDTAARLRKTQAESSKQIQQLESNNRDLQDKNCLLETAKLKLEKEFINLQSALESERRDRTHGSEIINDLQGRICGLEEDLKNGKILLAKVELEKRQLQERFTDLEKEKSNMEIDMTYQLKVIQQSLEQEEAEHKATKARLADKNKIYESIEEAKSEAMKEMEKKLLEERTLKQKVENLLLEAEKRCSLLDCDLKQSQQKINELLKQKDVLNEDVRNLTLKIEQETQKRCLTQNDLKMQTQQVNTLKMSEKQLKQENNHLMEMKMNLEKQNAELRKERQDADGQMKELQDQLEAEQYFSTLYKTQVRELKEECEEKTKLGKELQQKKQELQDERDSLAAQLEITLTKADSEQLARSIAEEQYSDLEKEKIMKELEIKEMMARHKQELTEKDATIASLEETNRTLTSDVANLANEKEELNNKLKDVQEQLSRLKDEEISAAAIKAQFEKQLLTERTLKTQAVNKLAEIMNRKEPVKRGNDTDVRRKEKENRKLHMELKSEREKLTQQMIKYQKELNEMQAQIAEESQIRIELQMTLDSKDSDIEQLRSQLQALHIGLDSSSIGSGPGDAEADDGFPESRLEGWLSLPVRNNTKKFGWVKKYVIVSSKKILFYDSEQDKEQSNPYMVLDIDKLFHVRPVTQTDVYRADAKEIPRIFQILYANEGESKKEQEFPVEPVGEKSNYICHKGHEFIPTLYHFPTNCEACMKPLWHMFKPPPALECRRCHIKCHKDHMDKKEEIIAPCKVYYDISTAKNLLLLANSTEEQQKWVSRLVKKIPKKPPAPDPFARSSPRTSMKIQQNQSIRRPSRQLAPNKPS

| Structure (SMILES) | IC50 |
| --- | --- |
| COc1ccc(C2(CN)CCC(Oc3cc4cc[nH]c(=O)c4cc3Cl)CC2)cc1OC (stereo unspecified) | ≤ 1000 nM |
| N[C@]1(C2CC2)CC[C@H](Oc2cc3cc[nH]c(=O)c3cc2Cl)CC1 | ≤ 1000 nM |
| C=CCC1(N)CCC(Oc2cc3cc[nH]c(=O)c3cc2Cl)CC1 (stereo unspecified) | ≤ 1000 nM |
| NCC1(c2ccccc2)CCC(Oc2cc3cc[nH]c(=O)c3cc2Cl)CC1 (stereo unspecified) | ≤ 1000 nM |
| NC1(CC(O)CO)CCC(Oc2cc3cc[nH]c(=O)c3cc2Cl)CC1 (stereo unspecified) | ≤ 1000 nM |
| COc1ccc(C2(CN)CCC(Oc3cc4cc[nH]c(=O)c4cc3Cl)CC2)cc1 (stereo unspecified) | ≤ 1000 nM |
| NCC1(c2ccc(Cl)c(Cl)c2)CCC(Oc2cc3cc[nH]c(=O)c3cc2Cl)CC1 (stereo unspecified) | ≤ 1000 nM |
| NCC1(c2ccccc2)CCC(Oc2cc3ccncc3cc2Cl)CC1 (stereo unspecified) | ≤ 1000 nM |
| NCC1(c2ccc(Cl)cc2)CCC(Oc2cc3cc[nH]c(=O)c3cc2Cl)CC1 (stereo unspecified) | ≤ 1000 nM |
| NCC1(c2ccc(F)cc2)CCC(Oc2cc3cc[nH]c(=O)c3cc2Cl)CC1 (stereo unspecified) | ≤ 1000 nM |
| NCC1(c2cccc(Cl)c2)CCC(Oc2cc3cc[nH]c(=O)c3cc2Cl)CC1 (stereo unspecified) | ≤ 1000 nM |
